Experimental data as given in patent US8921424B2, “Histone deacetylase inhibitors, process for preparation and uses thereof” (Zhejiang Hisun Pharmaceutical Co. Ltd., priority 2007, dated 2014).

Columns and labels:
COLO-205 = test: Xenograft model, COLO-205; assay type: in vivo, mouse; conditions: i.p., 12 days
Description: (§1) In Vivo Anti-Neoplastic (or Anti-Tumour) Effect of HDAC Inhibiting Agents
(§2) The efficacy of the selected compounds of the invention can then be determined using in vivo animal (mouse) xenograft studies. The animal xenograft model is one of the most commonly used in vivo cancer models for studying the pharmaceutically effective dosage, administration route, frequency and interval.
(§3) Athymic nude mice (Female, 5-6 week old, BALB/c, nu/nu, approximately 18-20 g body weight) are obtained from Vital River. The animals are kept on a 12 h light/dark cycle (0700-1900); food and water are provided ad libitum. All in vivo experiments are carried out in a specific pathogen-free facility (22° C.). The human cancer […] transplant model in athymic nude mice is constructed using xenograft cell lines colon cancer cell line colo205, breast cancer cell line MDA-MB435, and lung cancer cell line A549, all obtained from ATCC. Cultured cells are removed from culture plate wall by digestion, collected and suspended in cell culture medium containing no FBS, at a concentration of 5×10^6/0.2 ml, and brought to animal facility on ice. is 0.2 ml cell suspension is given to mice via rear left auxilliary subcutaneous scapular injection, using Size 6 needle. Animals are measured every 2-3 days on the size of tumor formation. After two weeks, those tumors that have been well grown without leak are removed from animals under sterile condition, split into several small fractions (2-3 mm in diameter), and injected s.c. into the rear left auxilliary subcutaneous scapular of animals. […] While the animas being treated, body weight of the animal and size of the tumor are measured every 3 days, with mortality also recorded. […] Tumors are removed, weighed, and measured. […] Tumor-inhibition rate, mortality, as well as relative tumor proliferationrate T/C (%) are calculated. […]
(§4) Significant differences in tumor growth rate were determined by analysis of variance (Table 5).

HCT-116 = test: Xenograft model, HCT-116; assay type: in vivo, mouse; conditions: i.p.
HCT116 = test: Cell-based proliferation assay (SRB), HCT116; conditions: Homo sapiens
Procedure: Cell-Based Proliferation Assay for Determination of GI50 Values
A rapid multiwell plate assay using Sulforhodamine B (SRB) protein stain was adopted to evaluate the growth inhibitory effects of the compounds of the present invention. The screening panel of cancer cell lines includes Colo205 and HCT116 colon cancer cells, MDA-MB231 and MDA-MB435 chest cancer cells, A549 lung cancer cells, and Chinese hamster ovary cell line CHO, which were obtained from ATCC.
The cell line Colo205 is grown in RPMI 1640 medium containing 2 mM L-glutamine, 5% fetal bovine serum, and 1.0 mM sodium pyruvic acid. Cell lines A549 and MDA-MB231 are grown in RPMI 1640 medium containing 2 mM L-glutamine and 5% fetal bovine serum. The cell line MDA-MB435 is grown in DMEM medium containing 2 mM L-glutamine and 5% fetal bovine serum. The cell lines HCT 116 is grown in IMEM medium containing 2 mM L-glutamine and 5% fetal bovine serum. The CHO cell line, used as a normal control on toxicity, is grown in a special medium for cell line. For a typical screening experiment, A549 and Colo205 cells are inoculated into 96-well microtiter plates, with 100 μL per well, and 2000 and 5000 cells per well respectively for either cell line. MDA-MB435, HCT116, MDA-MB231 and CHO cells are also inoculated into 96-well microtiter plates, with 6000 cells per well. After cell inoculation, the microtiter plates are incubated at 37° C., 5% CO2, and 100% relative humidity for 24 hr in order to make cells adhere to well wall.
After 24 h incubation or time zero for drug addition, with each cell line 50 μl of cold 50% (w/v) TCA is added to wells used for control to fix cells in situ. Also at time zero, cells in other wells are treated with 100 μl of compound of different concentrations for 24 hr, 48 hr, and 72 hr respectively, with varying final compound concentration (0.1 μM, 1 μM, 5 μM 10 μM). For each treatment duration at each compound concentration, there are triplicate wells, as well as an array of control wells including a blank control well (cell culture medium only, no cells), a no-compound control well (adding same volume of cell culture medium but no compound), a positive control well (treated with Suberoylanilide hydroxamic acid (SAHA)), and normal cell well control (CHO cells). Following the addition of compounds, cell plates are incubated for 24 h, 48 h or 72 h per treatment group at 37° C., 5% CO2, and 100% relative humidity. The Treatment is then terminated by addition of cold TCA and incubation of 1 hr at 4° C. The supernatant is discarded, and all wells are washed five times with de-ioned water and air dried. Then each well is added with 100 μl sulforhodamine B (SRB) solution (0.4% (w/v) made in 1% acetic acid) and cell plates are incubated for 20-30 minutes at room temperature. After staining, unbound dye is removed by washing five times with 1% acetic acid and the plates are air dried. Bound stain is subsequently solubilized with 10 mM (200 μL) Tris base with the help of 5 min platform vibration or pipetting up and down, and the absorbance is read on an automated plate reader (M5 detection system, MD Group Ltd.) at a wavelength of 565 nm (calibrated zero reading of blank control at wavelength of 690 nm). The analytical software, XL-fit has been used to generate GI50 from a series of data thus obtained.

HL-60 = test: Cell-based proliferation assay (SRB), HL-60; conditions: Homo sapiens
MDA-MB-435 = test: Xenograft model, MDA-MB-435; assay type: in vivo, mouse; conditions: i.p., 15 days
Description: as §1, §2, §3, §4

GI50 (HCT116; HCT-116, Table 3) [µM]	GI50 (HL-60; HL-60, Table 3) [µM]	GI50 (HL-60; HL-60, Table 4) [µM]	GI50 (HCT116; HCT-116, Table 4) [µM]	Structure (SMILES)	T/C(%) COLO-205 (COLO-205; 80 mg/kg)	T/C(%) HCT-116 (HCT-116; 80 mg/kg, 15 days)	T/C(%) MDA-MB-435 (MDA-MB-435; 80 mg/kg)	T/C(%) COLO-205 (COLO-205; 30 mg/kg)	T/C(%) HCT-116 (HCT-116; 30 mg/kg, 14 days)	T/C(%) MDA-MB-435 (MDA-MB-435; 30 mg/kg)	T/C(%) COLO-205 (COLO-205; 200 mg/kg)	T/C(%) HCT-116 (HCT-116; 300 mg/kg, 14 days)	T/C(%) MDA-MB-435 (MDA-MB-435; 200 mg/kg)
1.35	0.645	0.645	–	CCCCc1nc2cc(/C=C/C(=O)NO)ccc2n1CCN(CC)CC [SB939, reference compound]	–	–	–	55% (30,12)	30% (30,14)	58% (30,15)	–	–	–
3.99	3.51	3.51	3.99	CCCCCNc1cc(/C=C/C(=O)NO)ccc1SCCN(CC)CC [Example 2, 3-(4-(2-(diethylamino)ethylthio)-3-(pentylamino)phenyl)-N-hydroxy-acrylamide]	–	–	–	–	–	–	42% (200,12)	31% (300,14)	>60% (200,15)

Structure (SMILES)	GI50 (HCT116; HCT-116, Table 3) [µM]	GI50 (HL-60; HL-60, Table 3) [µM]	GI50 (HL-60; HL-60, Table 4) [µM]	GI50 (HCT116; HCT-116, Table 4) [µM]	T/C(%) COLO-205 (COLO-205; 80 mg/kg)	T/C(%) HCT-116 (HCT-116; 80 mg/kg, 15 days)	T/C(%) MDA-MB-435 (MDA-MB-435; 80 mg/kg)	T/C(%) COLO-205 (COLO-205; 30 mg/kg)	T/C(%) HCT-116 (HCT-116; 30 mg/kg, 14 days)	T/C(%) MDA-MB-435 (MDA-MB-435; 30 mg/kg)	T/C(%) COLO-205 (COLO-205; 200 mg/kg)	T/C(%) HCT-116 (HCT-116; 300 mg/kg, 14 days)	T/C(%) MDA-MB-435 (MDA-MB-435; 200 mg/kg)
O=C(CCCCCCC(=O)Nc1ccccc1)NO [SAHA, suberoylanilide hydroxamic acid, reference compound]	1.52	2	–	–	>60% (80,12)	>60% (80,15)	>60% (80,15)	–	–	–	–	–	–
